In US8324014B2, “Process for depositing boron compounds by CVD or PVD” (L'Air Liquide Societe Anonyme pour l'Etude et …, priority 2007, dated 2012):
Where two headings read alike, the source gives them in different places.

What was measured:
[1] = vapour pressure measurement (Clausius-Clapeyron diagram); type: physicochemical
Protocol: The curve plotted in FIG. 2B represents the Clausius-Clapeyron diagram of the 1,3,5-trimethylborazine molecule, namely its vapour pressure measurement. 1,3,5-trimethylborazine has a vapour pressure of 40 Torr at 50° C. and greater than 200 Torr at 100° C., indicating a good volatility.

[2] = thermogravimetric analysis; type: physicochemical; settings: ramp 20 to 400° C., 10° C./min, 30 mL/min helium
Protocol: A thermogravimetric analysis of 1,3,5-trimethylborazine was carried out over a temperature ramp of 20 to 400° C., with a rise of 10° C./min under 30 mL/min of helium.
Curve 2 from FIG. 2A plotted as a lighter line represents the loss in mass of the sample as a function of the temperature. The final value of the residue level of 3.2% indicates a high purity and good thermal stability of 1,3,5-trimethylborazine. This residue level is reached at 165° C.
Thermogravimetric analysis of tri-butylborane was carried out over a temperature ramp of 20 to 400° C., with a rise of 10° C./min under 30 mL/min of helium.
Curve 2 from FIG. 4 plotted as a lighter line represents the loss in mass of the sample as a function of the temperature.

[3] = system: rat; settings: cited from earlier work

SMILES	vapour pressure ([1]; at 50° C.) [Torr]	vapour pressure ([1]; at 100° C.)	final value of the residue level (thermal stability) [2] [%]	toxicity qualification with reference to LD50 oral, rat ([3]; in vivo, po)	toxicity qualification with reference to LD50 oral, rat ([3]; oral)
CN1BN(C)BN(C)B1 [1,3,5-trimethylborazine]	40	greater than 200 Torr	3.2	slightly toxic to almost non-toxic	–
B.B [diborane]	–	–	–	–	lethal
CCCCB(CCCC)CCCC [tri-n-butylborane]	–	–	0.6	–	–
CB(C)C [trimethylborane]	–	–	–	–	very toxic
